Test results published in US10231973B2, “Salts of quinazoline derivative and method for preparing the same” (CHIA TAI TIANQING PHARMACEUTICAL GROUP CO., LTD., priority 2015, dated 2019).
Where two headings read alike, the source gives them in different places.

How the values were obtained:
[1] = Bioavailability test, oral suspensions in beagle dogs; format: in vivo; details: oral suspension in CMC-Na, 5 mg/kg (as compound of Formula I); for Cmax: plasma concentration of compound of Formula I by LC-MS; for AUC0-t: sampling to 48 h
Experimental: Study procedure: Fifteen beagle dogs (7.4˜9.4 kg body weight) were randomly divided into 5 groups, and administered orally suspensions of the compound of Formula I, the maleate, citrate, oxalate and acetate thereof (calculated according to the amount of the compound of Formula I) in CMC-Na (carboxymethylcellulose sodium) at a dosage of 5 mg/kg body weight, respectively.
Chromatographic conditions: methanol as mobile phase A and a 0.1% (v/v) aqueous solution of formic acid as mobile phase B, an isocratic elution A:B=52:48; 0.2 mL/min of a flow rate; 35° C. of column temperature; and SHIMADZU Shim-pack VP-ODS C18 (5.0 μm, 150 mm×2.0 mm I.D., Shimadzu Corporation) as chromatographic column.
Mass spectrometry conditions: ion source: ESI ionization source, scanning in SIM mode, 250° C. of curved desolventizer (CDL) temperature, 200° C. of heating block temperature; 25V of CDL voltage; +1.60 kV of detection voltage; 1.5 L/min of atomization gas flow rate; 2.0 L/min of dry gas flow rate.

[2] = system: NCI-H1975, a human non-small cell lung cancer cell; assay: Anchorage-independent cell proliferation assay, NCI-H1975; format: cell-based; details: NCI-H1975, 168 h, soft agarose, 7 days treatment, CellTiter-Blue
Experimental: (§1) NCI-H1975, a human non-small cell lung cancer cell, and BT474, a human breast cancer cell line, were cultured in RPIM-1640 or DMEM culture medium supplemented with 10% fetal bovine serum (FBS) in a cell incubator (37° C., 5% CO2). In the test of the compound, culture plates were pre-coated with 0.6% medium, and the cells were resuspended with 0.3% low-melting-point agarose, and then seeded in a 96-well plate at a density of 10,000 cells per well (100 μL). The compound was diluted at a 3-fold gradient, starting from 10 mM. For each of concentration, 2 μL of the solution was taken, and added to 98 μL of culture medium, and then 5.3 μL of the mixture was added to the cell culture medium (0.1% of DMSO final concentration, v/v). After the treatment for one week (7 days), 20 μL of CellTiter-Blue® (Promega) reagent was added, and incubated at 37° C. for 4 hours. Fluorescence signals were read on Envison (Perkin Elmer), and IC50 values of the compound for inhibiting cell proliferation were calculated using GraphPad Prism 5.0.

[3] = system: BT474, a human breast cancer cell line; assay: Anchorage-independent cell proliferation assay, BT474; format: cell-based; details: BT-474, 168 h, soft agarose, 7 days treatment, CellTiter-Blue
Experimental: as §1

| Vd/F ([1]; dog, plasma) [L/kg] | half-life ([1]; dog, plasma) [h] | Cmax ([1]; dog, read-out: Cmax) [ng/mL] | CL/F ([1]; dog, plasma, read-out: CL/F (converted)) [mL/min/kg] | Tmax ([1]; dog, plasma, read-out: Tmax) [h] | AUC0-t ([1]; dog, plasma, read-out: AUC0-t) [ng·h/mL] | IC50 [2] [nM] | IC50 [3] [nM] | Molecule | CL/F ([1]; plasma) [mL/min/kg] | T1/2 ([1]; plasma) [h] | Tmax ([1]; plasma) [h] | Cmax [1] [ng/mL] | AUC0-t ([1]; plasma) [ng·h/mL] |
| --- | --- | --- | --- | --- | --- | --- | --- | --- | --- | --- | --- | --- | --- |
| – | – | – | – | – | – | – | – | Citrate | 72 | 4.48 | 1.33 | 1290 | 10760 |
| – | – | – | – | – | – | – | – | Oxalate | 23.2 | 9.38 | 1.50 | 3590 | 53200 |
| – | – | – | – | – | – | – | – | CC(=O)O [Acetate] | 55.2 | 9.41 | 3.33 | 2080 | 20350 |
| 0.78 ± 1.08 | 5.13 ± 2.85 | 2820 ± 2830 | 77.8 | 3.17 ± 4.19 | 42100 | 14 | 2.1 | C=CC(=O)N1CCC(Nc2cc3c(Nc4ccc(F)c(Cl)c4)ncnc3cc2OC)CC1 [Example 1, N^6-(1-acryloylpiperidin-4-yl)-N^4-(3-chloro-4-fluorophenyl)-7-methoxyquinazoline-4,6-diamine] | – | – | – | – | – |
